Values of other authors in patent EP4755392A1, “ORAL PREPARATION FOR IMPROVING MINIMAL ERYTHEMA DOSE” (Mitsubishi Corporation Life Sciences Limited, priority 2023, dated 2025).

Conditions: after 6 months, ingesting 250 mg or more

N[C@@H](CCC(=O)N[C@@H](CS)C(=O)NCC(=O)O)C(=O)O [glutathione]
blood glutathione amount increased: 17%
